# Laboratory results published in ChEMBL document CHEMBL1201862, “PubChem BioAssay data set” (2004).
# Active and inactive are the calls of the source.
# Columns and labels:
# cells [1] = experiment: cells
# [2] = Luminescence Cell-Based/Microorganism Confirmation at Dose of Inhibitors of Trypanosoma cruzi Infection. [Related pubchem assays: 1885, 1968 ]; type: functional
# [3] = T. cruzi infection blockers in NIH3T3 cells – beta-gal luminescence, NIH3T3 host cells, confirmation (AID 2630); type: functional, cell-based; conditions: Mus musculus
# [4] = Trypanosoma cruzi growth suppression in host cells – NIH3T3 host cells, beta-gal luminescence, confirmation (AID 2044); type: functional, cell-based;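 further: intracellular parasites grown in NIH/3T3 mouse fibroblasts as host cells; luminescent beta-galactosidase reporter signal from transgenic T. cruzi replicating inside host cells; inhibitors lower the luminescence signal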
# [5] = T. cruzi growth inhibition in host cells, dose response, cell-based, plate reader, dry powder, set 2 (AID 652275); type: functional
# [6] = NIH3T3 cell viability loss – ATP luminescence, mouse fibroblasts, counter-screen, dose response (AID 2010); type: functional, cell-based;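 further: cells exposed to compound for about 90 hours before reading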
# [7] = Luminescence Cell-Based Secondary HTS screen to identify cytotoxic compounds of NIH3T3 cells. [Related pubchem assays: 1885, 1968 ]; type: functional
# [8] = anti-trypanosomal activity in BESM host cells – imaging, CA-I/72 strain, bovine embryo skeletal muscle, dry powder, dose response (AID 651885); type: functional, cell-based
# [9] = target: FAD-linked sulfhydryl oxidase ALR (Homo sapiens, UniProt P55789); experiment: ALR-catalysed DTT oxidation blockers – biochemical, H2O2 detection, luminescence, cherry-pick, dose response (AID 493248)
# [10] = target: T1, Mannose-6-phosphate isomerase (Homo sapiens, UniProt P34949); experiment: MPI enzyme activity inhibition – biochemical, fluorescence intensity, coupled assay, primary screen (AID 1209)
# T1 sequence (P34949 whole entry): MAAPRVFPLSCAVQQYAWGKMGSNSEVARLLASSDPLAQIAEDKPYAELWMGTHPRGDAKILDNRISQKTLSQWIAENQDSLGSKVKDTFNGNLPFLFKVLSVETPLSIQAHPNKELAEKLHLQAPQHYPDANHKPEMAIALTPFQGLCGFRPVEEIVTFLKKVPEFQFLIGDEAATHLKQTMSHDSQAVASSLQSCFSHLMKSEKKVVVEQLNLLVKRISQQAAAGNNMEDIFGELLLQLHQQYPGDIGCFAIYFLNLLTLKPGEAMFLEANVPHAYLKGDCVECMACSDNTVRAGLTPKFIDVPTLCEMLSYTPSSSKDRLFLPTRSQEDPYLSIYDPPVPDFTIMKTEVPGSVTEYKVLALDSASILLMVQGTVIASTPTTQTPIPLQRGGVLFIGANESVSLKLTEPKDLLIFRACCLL
# [11] = target: T1, Mannose-6-phosphate isomerase; experiment: MPI inhibition at elevated mannose 6-phosphate – biochemical, fluorescence intensity, high mannose 6-phosphate, primary screen (AID 1220)
# Large T antigen = Large T antigen (Simian virus 40, UniProt P03070); type: functional, Betapolyomavirus macacae;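 further: Confirmatory-stage PubChem screen for compounds that inhibit SV40 T antigen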
# Bcl-2-like protein 1 = Bcl-2-like protein 1 (Homo sapiens, UniProt Q07817); experiment: blockers of BCLXL peptide binding – biochemical, fluorescence polarization, 1536-well, selectivity assay for MCL1 inhibitor project, dose response (AID 2218)
# Albumin = Albumin (Bos taurus, UniProt P02769); experiment: Counterscreen for inhibitors of T-cell receptor (TCR)-CD3 interaction: Fluorescence-based biochemical high throughput dose response assay to identify inhibitors of T-cell receptor (TCR)-CD3 interaction using a TAMRA-labeled BSA probe.; type: functional
# [12] = target: T2, Endoribonuclease toxin MazF (Escherichia coli K-12, UniProt P0AE70); experiment: activation of MazEF endoribonuclease cleavage – biochemical, fluorescence, single-stranded RNA substrate, uHTS hits, dose response (AID 588481); type: functional
# T2 sequence (P0AE70 whole entry): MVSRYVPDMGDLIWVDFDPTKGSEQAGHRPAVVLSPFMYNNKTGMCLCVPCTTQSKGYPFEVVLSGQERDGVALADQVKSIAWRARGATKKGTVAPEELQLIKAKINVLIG
# [13] = target: Induced myeloid leukemia cell differentiation protein Mcl-1 (Homo sapiens, UniProt Q07820); experiment: blockers of MCL1 binding to BIM peptide – biochemical, fluorescence polarization, BIM-BH3 peptide, 1536-well, dose response (AID 2217)
# [14] = target: T2, Endoribonuclease toxin MazF; experiment: substrate-only fluorescence increase artefacts – biochemical, single-stranded RNase substrate, counter-screen for MazEF activator project, dose response (AID 588502); type: functional
# [15] = target: Ubiquitin carboxyl-terminal hydrolase BAP1 (Homo sapiens, UniProt Q92560); experiment: inhibition of BAP1 ubiquitin hydrolase activity – biochemical, dose response (AID 714); type: functional
# [16] = target: Sphingosine 1-phosphate receptor 2 (Homo sapiens, UniProt O95136); experiment: Dose Response Cell Based Assay for Agonists of the S1P2 Receptor of Purchased Analogues. [Related pubchem assays: 729, 843, 854, 736 ]; type: functional
# [17] = M. tuberculosis growth inhibition, HTS (AID 449762); type: functional
# [18] = target: T3, Oxysterols receptor LXR-beta (Homo sapiens, UniProt P55055); type: functional, cell-based
# T3 sequence (P55055 whole entry): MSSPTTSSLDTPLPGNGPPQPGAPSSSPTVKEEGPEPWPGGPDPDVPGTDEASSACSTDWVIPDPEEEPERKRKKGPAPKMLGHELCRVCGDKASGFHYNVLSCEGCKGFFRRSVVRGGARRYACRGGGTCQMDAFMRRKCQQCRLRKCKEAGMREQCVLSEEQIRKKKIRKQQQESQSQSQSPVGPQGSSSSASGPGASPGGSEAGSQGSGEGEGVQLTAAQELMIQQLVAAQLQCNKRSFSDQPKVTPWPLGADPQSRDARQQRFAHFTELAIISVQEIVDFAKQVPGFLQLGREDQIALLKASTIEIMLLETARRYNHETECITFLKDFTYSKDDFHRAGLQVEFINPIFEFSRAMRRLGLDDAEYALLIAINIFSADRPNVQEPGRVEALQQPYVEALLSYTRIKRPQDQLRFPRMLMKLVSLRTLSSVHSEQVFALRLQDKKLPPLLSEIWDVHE
# cells [19] = experiment: cells; remark: listed apart in the source
# [20] = rise of 2N DNA cells, HeLa – IC50, dose response (AID 1117349); type: functional, cell-based
# [21] = target: T3, Oxysterols receptor LXR-beta; type: functional, cell-based; remark: listed apart in the source
# [22] = rise of 4N DNA cells, HeLa – IC50, dose response (AID 1117351); type: functional, cell-based
# Sequence of Albumin (P02769 whole entry): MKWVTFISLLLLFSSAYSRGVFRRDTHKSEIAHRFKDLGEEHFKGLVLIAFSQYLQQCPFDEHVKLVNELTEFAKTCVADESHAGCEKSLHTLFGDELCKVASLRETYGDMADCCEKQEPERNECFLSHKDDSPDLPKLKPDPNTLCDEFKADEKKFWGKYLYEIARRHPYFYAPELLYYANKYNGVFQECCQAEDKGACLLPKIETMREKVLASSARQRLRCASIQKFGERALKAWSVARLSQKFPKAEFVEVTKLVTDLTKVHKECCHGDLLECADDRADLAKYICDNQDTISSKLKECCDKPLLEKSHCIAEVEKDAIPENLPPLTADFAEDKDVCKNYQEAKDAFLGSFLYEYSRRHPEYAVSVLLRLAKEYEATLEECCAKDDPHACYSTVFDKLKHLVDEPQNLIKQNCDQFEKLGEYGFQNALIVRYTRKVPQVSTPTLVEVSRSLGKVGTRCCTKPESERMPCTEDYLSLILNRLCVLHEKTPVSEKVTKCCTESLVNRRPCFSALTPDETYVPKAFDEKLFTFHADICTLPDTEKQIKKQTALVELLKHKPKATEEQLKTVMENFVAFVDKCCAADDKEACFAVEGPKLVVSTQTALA
# Sequence of Induced myeloid leukemia cell differentiation protein Mcl-1 (Q07820 whole entry): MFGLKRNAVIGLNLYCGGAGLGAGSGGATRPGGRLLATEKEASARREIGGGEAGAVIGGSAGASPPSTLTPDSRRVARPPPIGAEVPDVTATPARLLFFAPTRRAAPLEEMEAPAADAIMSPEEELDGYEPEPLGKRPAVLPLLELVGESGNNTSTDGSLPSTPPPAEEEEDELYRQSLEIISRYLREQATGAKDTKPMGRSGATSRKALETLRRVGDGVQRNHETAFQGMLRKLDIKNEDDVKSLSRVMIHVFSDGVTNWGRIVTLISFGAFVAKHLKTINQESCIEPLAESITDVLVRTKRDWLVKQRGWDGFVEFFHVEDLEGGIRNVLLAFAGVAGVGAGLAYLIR
# Sequence of Sphingosine 1-phosphate receptor 2 (O95136 whole entry): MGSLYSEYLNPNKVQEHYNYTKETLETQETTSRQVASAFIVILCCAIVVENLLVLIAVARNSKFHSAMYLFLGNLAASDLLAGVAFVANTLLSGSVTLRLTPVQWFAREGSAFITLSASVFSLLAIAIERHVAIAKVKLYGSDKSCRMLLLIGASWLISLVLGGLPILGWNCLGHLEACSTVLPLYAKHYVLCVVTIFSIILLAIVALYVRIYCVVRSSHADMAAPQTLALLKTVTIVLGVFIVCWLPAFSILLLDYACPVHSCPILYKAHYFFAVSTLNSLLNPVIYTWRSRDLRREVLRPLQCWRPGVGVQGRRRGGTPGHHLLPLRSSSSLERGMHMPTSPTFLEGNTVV
# Sequence of Large T antigen (P03070 whole entry): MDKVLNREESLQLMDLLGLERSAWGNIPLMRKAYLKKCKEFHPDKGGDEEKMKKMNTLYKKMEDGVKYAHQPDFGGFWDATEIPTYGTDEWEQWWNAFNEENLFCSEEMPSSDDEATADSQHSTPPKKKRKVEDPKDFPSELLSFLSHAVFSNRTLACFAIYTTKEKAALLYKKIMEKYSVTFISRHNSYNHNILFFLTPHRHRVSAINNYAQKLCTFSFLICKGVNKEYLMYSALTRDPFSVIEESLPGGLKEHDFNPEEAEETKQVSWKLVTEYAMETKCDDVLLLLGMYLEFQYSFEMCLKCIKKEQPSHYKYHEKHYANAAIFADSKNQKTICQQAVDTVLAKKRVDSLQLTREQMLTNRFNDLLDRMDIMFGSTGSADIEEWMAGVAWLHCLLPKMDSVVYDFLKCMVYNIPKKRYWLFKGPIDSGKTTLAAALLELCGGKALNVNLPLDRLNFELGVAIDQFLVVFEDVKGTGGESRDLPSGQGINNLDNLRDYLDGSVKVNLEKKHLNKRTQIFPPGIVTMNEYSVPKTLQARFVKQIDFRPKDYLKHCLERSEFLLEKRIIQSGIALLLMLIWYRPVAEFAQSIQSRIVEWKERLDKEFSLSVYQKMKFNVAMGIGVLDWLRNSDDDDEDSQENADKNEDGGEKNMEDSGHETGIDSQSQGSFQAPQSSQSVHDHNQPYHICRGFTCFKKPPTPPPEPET
# Sequence of Bcl-2-like protein 1 (Q07817 whole entry): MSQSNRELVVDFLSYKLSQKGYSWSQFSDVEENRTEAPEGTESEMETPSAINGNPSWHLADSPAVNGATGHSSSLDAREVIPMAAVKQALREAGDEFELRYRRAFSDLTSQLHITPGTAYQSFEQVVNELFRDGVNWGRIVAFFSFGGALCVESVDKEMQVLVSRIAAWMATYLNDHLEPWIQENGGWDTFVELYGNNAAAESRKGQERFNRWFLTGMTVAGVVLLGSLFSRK
# Sequence of FAD-linked sulfhydryl oxidase ALR (P55789 whole entry): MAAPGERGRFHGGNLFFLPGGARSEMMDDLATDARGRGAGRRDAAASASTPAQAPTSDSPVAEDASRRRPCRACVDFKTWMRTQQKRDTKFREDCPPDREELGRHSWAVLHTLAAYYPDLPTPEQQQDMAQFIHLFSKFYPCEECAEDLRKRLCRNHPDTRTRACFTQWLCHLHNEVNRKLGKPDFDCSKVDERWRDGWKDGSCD
# Sequence of Ubiquitin carboxyl-terminal hydrolase BAP1 (Q92560 whole entry): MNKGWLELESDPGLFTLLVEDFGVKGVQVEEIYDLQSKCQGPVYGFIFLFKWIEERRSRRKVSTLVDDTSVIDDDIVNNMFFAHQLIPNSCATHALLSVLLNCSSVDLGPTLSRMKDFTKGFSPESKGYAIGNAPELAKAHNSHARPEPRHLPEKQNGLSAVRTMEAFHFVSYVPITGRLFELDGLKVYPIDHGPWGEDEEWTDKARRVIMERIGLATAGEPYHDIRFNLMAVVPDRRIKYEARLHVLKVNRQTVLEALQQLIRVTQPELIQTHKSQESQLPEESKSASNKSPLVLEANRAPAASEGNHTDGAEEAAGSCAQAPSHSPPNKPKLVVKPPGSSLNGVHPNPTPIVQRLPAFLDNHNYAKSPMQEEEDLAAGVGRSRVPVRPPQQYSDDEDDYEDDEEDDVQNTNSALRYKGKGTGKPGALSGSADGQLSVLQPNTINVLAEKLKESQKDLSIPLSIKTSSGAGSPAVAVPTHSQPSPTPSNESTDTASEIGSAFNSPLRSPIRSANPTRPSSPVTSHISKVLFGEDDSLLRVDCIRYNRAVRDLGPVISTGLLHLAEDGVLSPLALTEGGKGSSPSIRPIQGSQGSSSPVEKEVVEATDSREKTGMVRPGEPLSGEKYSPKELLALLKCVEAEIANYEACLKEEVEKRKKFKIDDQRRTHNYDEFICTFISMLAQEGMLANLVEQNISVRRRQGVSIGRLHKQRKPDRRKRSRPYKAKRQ
compound,measurement,setting,value
CCCn1ncc(CN2CCCC(C(=O)c3cccc(OC(C)C)c3)C2)c1C (stereo not given),EC50,cells [1],0.054 µM (active)
same,EC50,[2],0.047 µM (active)
same,EC50,[3],0.047 µM (active)
same,EC50,[4],< 0.1 µM (active)
same,AC50,[5],0.0589 µM (active)
same,EC50,[6],> 60 µM (not active)
same,EC50,[7],> 195 µM (not active)
same,IC50,[8],> 20 µM (inactive)
CCn1c(=O)n(CC)c2cc(N)ccc21,AC50,[9],0.754 µM (active)
same,IC50,[10],> 50 µM (not active)
same,IC50,[11],> 50 µM (not active)
same,IC50,Large T antigen,14 µM (active)
O=c1cc(-c2ccc(O)c(O)c2)oc2c1ccc1ccccc12,IC50,Bcl-2-like protein 1,> 109 µM (not active)
same,IC50,Albumin,> 94.1 µM (inactive)
same,EC50,[12],> 99 µM (inactive)
same,IC50,[13],23.8 µM (not active)
same,EC50,[14],> 99 µM (inactive)
O=C(CSc1nc2c(c(=O)n1-c1ccc(Cl)cc1)SCC2)Nc1ccc2c(c1)OCCO2,IC50,[15],38.6 µM (not active)
Cc1cc(C(=O)CN(C)CC(=O)NC(C)(C)C)c(C)n1Cc1ccccc1,EC50,[16],> 30 µM (not active)
CCCNC(=O)NC(=O)COc1ccc2oc3ccccc3c2c1,IC50,[17],> 100 µM (active)
O=c1[nH]c(=O)n([C@H]2C[C@H](O)[C@@H](CO)O2)cc1Br [BROXURIDINE],EC50,[18],> 67.6 µM (inactive)
same,EC50,cells [19],> 67.5 µM (inactive)
same,IC50,[20],> 10 µM (inactive)
same,EC50,[21],> 67.5 µM (inactive)
same,IC50,[22],> 10 µM (inactive)
